Experimental data: US20160160224A1, “CRYPTOSPORIDIUM TRANSFECTION METHODS AND TRANSFECTED CRYPTOSPORIDIUM CELLS” (UNIVERSITY OF GEORGIA RESEARCH FOUNDATION, INC., priority 2013, published 2016)

System: C. parvum
Assay: Nluc luciferase assay of transfected C. parvum cultured in HCT-8 cells in the presence of drug
Format: cell-based, Cryptosporidium parvum
Details: electroporated (Nluc-transfected) C. parvum grown in paramomycin on HCT-8 host cells; FIG. 3D
Excerpt: Next, we performed transfections and then cultured the transfected parasites in the presence of paramomycin, a drug that reduces growth of C. parvum but not the mammalian host cell. […] (FIG. 3D). We also tested an Nluc plasmid that lacks the Cryptosporidium promoter but carries Toxoplasma flanking sequences instead. […] Lastly, we tested whether parasite vectors can transduce host cells by deliberately delivering plasmid DNA into the HCT-8 host cell cytoplasm by lipofection. […] Collectively these measurements confirm that Apicomplexa and mammals have divergent primary sequence elements that drive transcription and subsequent RNA processing. Cryptosporidium transfection therefore depends on the introduction of a parasite species specific vector into viable parasites. Moreover, passive DNA delivery into the host is not relevant for activity and host cells are not transfected even when DNA is deliberately introduced into the host. […]
For in vitro experiments, cells were scraped from T-25 flasks or 24-well plates and collected after 48 hours of incubation. […] After five minutes of incubation at room temperature, the cell lysate was added to white 96 well plates and luminescence was measured on a luminometer (BioTek Instruments, Inc., Winooski, Vt.). The read out was quantified in terms of relative luminescence units (RLU).

NC[C@@H]1O[C@H](O[C@H]2[C@@H](O)[C@H](O[C@@H]3[C@@H](O)[C@H](N)C[C@H](N)[C@H]3O[C@H]3O[C@H](CO)[C@@H](O)[C@H](O)[C@H]3N)O[C@@H]2CO)[C@H](N)[C@@H](O)[C@@H]1O [Paramomycin, paramomycin] was tested, and the “Nluc expression (luciferase activity)” value was “reduction of Nluc expression”.
